The values below come from patent US10544143B2, “4-azaindole compounds” (BRISTOL-MYERS SQUIBB COMPANY, priority 2017, dated 2020).

One test deals with human TLR8 (Homo sapiens (Human), UniProt Q9NR97). The experiment in a line: TLR8 inhibition reporter assay (HEK-Blue SEAP).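 Note: SEAP driven by IFN-β minimal promoter carrying NF-κB and AP-1 sites, compounds dosed 0.05 nM to 50 µM for 22 h, inhibition scaled between agonist-plus-DMSO and reference-inhibitor wells.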 Particulars: read-out: TLR8 IC50. A general note: A reporter such as luciferase makes a cellular process visible.
Chain of human TLR8 (Q9NR97 27-1041): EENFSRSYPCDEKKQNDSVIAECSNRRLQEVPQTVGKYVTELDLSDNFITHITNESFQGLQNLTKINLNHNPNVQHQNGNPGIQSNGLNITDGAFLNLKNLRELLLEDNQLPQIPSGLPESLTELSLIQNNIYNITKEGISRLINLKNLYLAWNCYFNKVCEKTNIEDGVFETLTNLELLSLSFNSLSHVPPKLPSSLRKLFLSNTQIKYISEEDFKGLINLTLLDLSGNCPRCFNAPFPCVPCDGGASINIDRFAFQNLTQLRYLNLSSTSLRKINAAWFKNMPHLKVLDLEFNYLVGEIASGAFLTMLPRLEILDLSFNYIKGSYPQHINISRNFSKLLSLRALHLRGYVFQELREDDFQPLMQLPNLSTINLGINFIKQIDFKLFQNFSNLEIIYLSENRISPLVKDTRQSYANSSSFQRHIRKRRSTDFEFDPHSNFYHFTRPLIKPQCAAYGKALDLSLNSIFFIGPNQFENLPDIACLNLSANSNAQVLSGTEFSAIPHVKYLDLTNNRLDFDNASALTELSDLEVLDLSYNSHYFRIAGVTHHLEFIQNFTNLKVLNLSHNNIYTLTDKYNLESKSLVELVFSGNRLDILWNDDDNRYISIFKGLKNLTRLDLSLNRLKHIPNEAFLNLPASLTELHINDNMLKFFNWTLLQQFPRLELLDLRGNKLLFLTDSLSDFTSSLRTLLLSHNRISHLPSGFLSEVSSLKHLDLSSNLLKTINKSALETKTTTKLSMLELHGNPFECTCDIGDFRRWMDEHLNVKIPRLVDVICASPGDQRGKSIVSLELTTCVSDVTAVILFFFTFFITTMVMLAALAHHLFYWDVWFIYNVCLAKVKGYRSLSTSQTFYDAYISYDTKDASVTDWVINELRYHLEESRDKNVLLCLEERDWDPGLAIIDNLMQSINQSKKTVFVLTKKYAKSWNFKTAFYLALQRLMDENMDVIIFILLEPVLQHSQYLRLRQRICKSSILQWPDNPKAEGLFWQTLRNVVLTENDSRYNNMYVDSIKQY
The target in another test is human TLR9 (Homo sapiens (Human), UniProt Q9NR96). The experiment in a line: TLR9 inhibition reporter assay (HEK-Blue SEAP).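 Note: SEAP driven by an IFN-β minimal promoter with NF-κB and AP-1 sites, read after 22 h, compounds dosed 0.05 nM–50 µM, inhibition scaled between agonist plus DMSO and reference-inhibitor wells.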 The note with it: read-out: TLR9 IC50.
Chain of human TLR9 (Q9NR96 26-1032): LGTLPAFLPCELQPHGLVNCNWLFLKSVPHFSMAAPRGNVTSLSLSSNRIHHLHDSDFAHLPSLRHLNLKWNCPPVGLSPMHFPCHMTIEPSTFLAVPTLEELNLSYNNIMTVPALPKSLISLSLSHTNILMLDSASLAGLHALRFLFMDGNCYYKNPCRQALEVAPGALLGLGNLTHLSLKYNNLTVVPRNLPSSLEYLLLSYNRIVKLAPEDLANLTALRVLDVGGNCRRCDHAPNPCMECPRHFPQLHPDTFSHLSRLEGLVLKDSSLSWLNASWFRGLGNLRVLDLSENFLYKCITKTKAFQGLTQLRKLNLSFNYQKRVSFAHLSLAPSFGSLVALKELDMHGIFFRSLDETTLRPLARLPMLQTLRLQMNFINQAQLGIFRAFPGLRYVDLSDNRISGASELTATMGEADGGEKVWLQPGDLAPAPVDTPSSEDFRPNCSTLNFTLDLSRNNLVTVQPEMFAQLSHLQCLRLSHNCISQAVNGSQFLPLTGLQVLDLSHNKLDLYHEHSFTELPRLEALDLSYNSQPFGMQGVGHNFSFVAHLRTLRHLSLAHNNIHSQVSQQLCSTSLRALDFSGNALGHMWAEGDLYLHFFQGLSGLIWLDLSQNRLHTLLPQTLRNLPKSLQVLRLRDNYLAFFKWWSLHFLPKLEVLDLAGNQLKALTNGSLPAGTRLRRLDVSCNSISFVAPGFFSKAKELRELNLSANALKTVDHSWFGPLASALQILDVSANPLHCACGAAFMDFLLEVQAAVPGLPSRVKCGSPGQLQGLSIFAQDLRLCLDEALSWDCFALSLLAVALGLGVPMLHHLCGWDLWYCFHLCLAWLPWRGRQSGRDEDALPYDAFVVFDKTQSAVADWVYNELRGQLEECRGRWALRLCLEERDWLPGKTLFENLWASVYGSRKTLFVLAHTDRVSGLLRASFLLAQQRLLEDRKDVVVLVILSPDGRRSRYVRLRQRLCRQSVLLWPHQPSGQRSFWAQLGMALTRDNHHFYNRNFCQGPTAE
A further test deals with human TLR7 (Homo sapiens (Human), UniProt Q9NYK1). The experiment in a line: TLR7 inhibition reporter assay (HEK-Blue SEAP). Type of test: cell-based.
Chain of human TLR7 (Q9NYK1 27-1049): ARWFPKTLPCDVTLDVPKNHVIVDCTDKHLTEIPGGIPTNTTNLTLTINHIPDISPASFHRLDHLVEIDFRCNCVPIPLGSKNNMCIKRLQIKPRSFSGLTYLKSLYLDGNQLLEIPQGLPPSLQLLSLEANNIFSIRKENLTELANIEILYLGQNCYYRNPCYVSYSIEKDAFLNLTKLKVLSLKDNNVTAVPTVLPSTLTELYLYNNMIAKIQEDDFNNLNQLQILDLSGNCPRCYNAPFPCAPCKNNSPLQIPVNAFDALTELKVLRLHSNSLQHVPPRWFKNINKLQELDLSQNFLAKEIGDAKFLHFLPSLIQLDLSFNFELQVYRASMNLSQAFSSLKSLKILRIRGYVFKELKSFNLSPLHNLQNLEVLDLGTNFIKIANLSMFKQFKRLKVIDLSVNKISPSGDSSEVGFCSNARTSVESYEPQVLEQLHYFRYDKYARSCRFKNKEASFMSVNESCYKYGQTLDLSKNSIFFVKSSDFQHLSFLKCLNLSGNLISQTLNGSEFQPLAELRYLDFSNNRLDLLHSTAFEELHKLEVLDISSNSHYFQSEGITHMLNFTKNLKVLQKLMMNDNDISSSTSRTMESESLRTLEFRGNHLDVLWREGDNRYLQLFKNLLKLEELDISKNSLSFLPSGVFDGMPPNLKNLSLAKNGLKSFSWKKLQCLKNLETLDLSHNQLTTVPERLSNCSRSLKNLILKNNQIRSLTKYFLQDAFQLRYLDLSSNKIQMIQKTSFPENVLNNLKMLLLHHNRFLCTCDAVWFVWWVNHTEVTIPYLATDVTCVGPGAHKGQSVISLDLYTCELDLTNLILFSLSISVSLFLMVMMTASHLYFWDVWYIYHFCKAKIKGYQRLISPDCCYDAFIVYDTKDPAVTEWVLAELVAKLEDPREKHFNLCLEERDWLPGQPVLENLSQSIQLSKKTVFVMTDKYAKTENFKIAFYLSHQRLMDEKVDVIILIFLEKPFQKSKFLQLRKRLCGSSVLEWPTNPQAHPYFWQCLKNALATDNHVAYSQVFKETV
Where [1] appears, read: HEK-Blue cells overexpressing human TLR8, R848 15.9 μM stimulation, SEAP reporter.
Where [2] appears, read: HEK-Blue cells overexpressing human TLR9, ODN2006 5 nM stimulation, SEAP reporter.
Where [3] appears, read: HEK-Blue cells overexpressing human TLR7, gardiquimod 7.5 μM stimulation, SEAP reporter.
Where [4] appears, read: HEK-Blue human TLR8 cells, R848 15.9 μM.
Setting [5] is: HEK-Blue human TLR9 cells, ODN2006 5 nM.
The mark [6] stands for this setting: HEK-Blue human TLR7 cells, gardiquimod 7.5 μM.
[7] abbreviates: HEK-Blue cells overexpressing human TLR8, SEAP reporter, R848 15.9 μM.
Where [8] appears, read: HEK-Blue cells overexpressing human TLR9, SEAP reporter, ODN2006 5 nM.
Setting [9] is: HEK-Blue cells overexpressing human TLR7, SEAP reporter, gardiquimod 7.5 μM.

As usually defined, the IC50 is the concentration needed to halve the response being measured.

SMILES strings stand for the structures. Like-named read-outs stand apart in the source and are kept apart here.

As to `COCCN(C)C1CCC(c2ccc3[nH]c(-c4cn5ncnc5c(C)c4C)c(C(C)C)c3n2)CC1` (stereo not drawn) [Example 389], the IC50 was determined as 1.6 nM on human TLR8 (setting [1]), 923 nM at human TLR9 (setting [2]) and 0.45 nM at human TLR7 (setting [3]).

Turning to `CCN(CC)C1CCC(c2ccc3[nH]c(-c4cn5ncnc5c(C)c4C)c(C(C)C)c3n2)CC1` (stereo not drawn) [Example 378], the IC50 at human TLR8 (setting [1]) worked out at 4.6 nM; on human TLR9 (setting [2]), 1640 nM; against human TLR7 (setting [3]), 1.6 nM.

`CCN(C)CC(=O)N1CCN(c2ccc3[nH]c(-c4cn5ncnc5c(C)c4N)c(C(C)C)c3n2)C[C@H]1C` [Example 942]: the IC50 at human TLR8 (setting [4]) stood at 3.4 nM; on human TLR9 (setting [5]), 12000 nM; against human TLR7 (setting [6]), 0.5 nM.

As for `Cc1c(-c2[nH]c3ccc(N4CCN[C@@H](C)C4)nc3c2C(C)C)cn2ncnc2c1C` [Example 989], the IC50 on human TLR8 (setting [4]) is 0.31 nM; at human TLR9 (setting [5]) it was 7100 nM; at human TLR7 (setting [6]) it was 0.69 nM.

Turning to `Cc1c(-c2[nH]c3ccc(N4CC5(CCN(CCS(C)(=O)=O)CC5)C4)nc3c2C(C)C)cn2ncnc2c1C` [Example 45], the IC50 on human TLR8 (setting [1]) is 20 nM; at human TLR9 (setting [2]) it was 7280 nM; against human TLR7 (setting [3]), 22 nM.

Consider `COc1cc(-c2[nH]c3cc(C)c(C4CCNCC4)nc3c2C(C)C)cn2ncnc12` [Example 523], for which the IC50 came out at 147 nM at human TLR8 (setting [7]), 1470 nM on human TLR9 (setting [8]) and 1.2 nM against human TLR7 (setting [9]).

For `Cc1c(-c2[nH]c3ccc(C4CC5(C4)CN(C(=O)CCN(C)C)C5)nc3c2C(C)C)cn2ncnc2c1C` [Example 746, 1-(6-(2-(7,8-dimethyl-[1,2,4]triazolo[1,5-a]pyridin-6-yl)-3-isopropyl-1H-pyrrolo[3,2-b]pyridin-5-yl)-2-azaspiro[3.3]heptan-2-yl)-3-(dimethylamino)propan-1-one], the IC50 at human TLR8 (setting [7]) was found to be 10 nM; on human TLR9 (setting [8]) it was 3110 nM; on human TLR7 (setting [9]), 1.1 nM.

Turning to `Cc1c(-c2[nH]c3ccc(N4[C@@H]5CC[C@H]4CN(C(=O)CN4CCCC4)C5)nc3c2C(C)C)cn2ncnc2c1C` [Example 921], the IC50 at human TLR8 (setting [4]) is 3.4 nM; at human TLR9 (setting [5]), 5270 nM; on human TLR7 (setting [6]), 0.61 nM.

As to `COc1cc(-c2[nH]c3cc(C)c(C4CCC(NC5COC5)CC4)nc3c2C(C)C)cn2ncnc12` (stereo not drawn) [Example 316], the half-maximal inhibitory concentration (IC50) came to 41 nM at human TLR8 (setting [1]), 3020 nM at human TLR9 (setting [2]) and 1.4 nM on human TLR7 (setting [3]).

For the compound `Cc1c(-c2[nH]c3ccc(N4[C@@H]5CC[C@H]4CNC5)nc3c2C(C)C)cn2ncnc2c1C` [Example 979], the results for the IC50 at human TLR8 (setting [4]), at human TLR9 (setting [5]) and against human TLR7 (setting [6]) were 0.8 nM, 4290 nM and 1.1 nM, respectively.

Regarding `COc1cc(-c2[nH]c3ccc(N4CC(NCC(=O)N(C)C)C4)nc3c2C(C)C)cn2ncnc12` [Example 27], the IC50 at human TLR8 (setting [1]) is more than 3120 nM; at human TLR9 (setting [2]), more than 50000 nM; against human TLR7 (setting [3]) it was more than 3120 nM.

Consider `Cc1c(-c2[nH]c3ccc(C4CN(CCS(C)(=O)=O)CCO4)nc3c2C(C)C)cn2ncnc2c1C` (stereo not drawn) [Example 674], for which the IC50 on human TLR8 (setting [7]) was 48 nM; at human TLR9 (setting [8]) it was more than 50000 nM; against human TLR7 (setting [9]), 32 nM.

`Cc1c(-c2[nH]c3ccc(C4CC(NC5CCOCC5)C4)nc3c2C(C)C)cn2ncnc2c1C` (stereo not drawn) [Example 635]: the IC50 worked out at 1.1 nM on human TLR8 (setting [7]), 1780 nM on human TLR9 (setting [8]) and 5.7 nM against human TLR7 (setting [9]).

On to `COc1cc(-c2[nH]c3ccc(N4CC(N(C)C(=O)CN(C)C)C4)nc3c2C(C)C)cn2ncnc12` [Example 28], for which the IC50 at human TLR8 (setting [1]) was 1500 nM; at human TLR9 (setting [2]) it was more than 50000 nM; at human TLR7 (setting [3]) it was 263 nM.

Regarding `Cc1c(-c2[nH]c3ccc(N4CCN(S(=O)(=O)CCN(C)C)CC4)nc3c2C(C)C)cn2ncnc2c1C` [Example 151], the IC50 at human TLR8 (setting [1]) was 1.2 nM; at human TLR9 (setting [2]), 12000 nM; on human TLR7 (setting [3]) it was 1.2 nM.

Turning to `CC(C)c1c(-c2cn(C)c3ncccc23)[nH]c2ccc(C3CCC(NCC(C)(C)S(C)(=O)=O)CC3)nc12` (stereo not drawn) [Example 278], the IC50 at human TLR8 (setting [1]) is 1.2 nM; at human TLR9 (setting [2]), 837 nM; against human TLR7 (setting [3]), 1.5 nM.

For the compound `Cc1c(-c2[nH]c3ccc(C4CC(N(C)CC(=O)N(C)C)C4)nc3c2C(C)C)cn2ncnc2c1C` (stereo not drawn) [Example 622], the results for the concentration for half-maximal inhibition (IC50) on human TLR8 (setting [7]), on human TLR9 (setting [8]) and on human TLR7 (setting [9]) were 14 nM, 5070 nM and 30 nM, respectively.

For the compound `COCCN1CC2(CC(c3ccc4[nH]c(-c5cn6ncnc6c(C)c5C)c(C(C)C)c4n3)C2)C1` [Example 1031], the figures for the IC50 on human TLR8 (setting [4]), at human TLR9 (setting [5]) and against human TLR7 (setting [6]) were 2 nM, 12700 nM and 18 nM, respectively.

With `CNC(=O)CN(C)C1CCC(c2ccc3[nH]c(-c4cn5ncnc5c(C)c4C)c(C(C)C)c3n2)CC1` (stereo not drawn) [Example 400], the half-maximal inhibitory concentration (IC50) at human TLR8 (setting [7]) worked out at 2.9 nM; at human TLR9 (setting [8]) it was 1550 nM; against human TLR7 (setting [9]), 0.74 nM.

For `Cc1c(-c2[nH]c3ccc(C4CCC(NCc5cnco5)CC4)nc3c2C(C)C)cn2ncnc2c1C` (stereo not drawn) [Example 413], the IC50 at human TLR8 (setting [7]) turned out to be 18 nM; at human TLR9 (setting [8]), 4740 nM; against human TLR7 (setting [9]), 17 nM.

Consider `Cc1c(-c2[nH]c3ccc(N4[C@@H]5CC[C@H]4CN(C(=O)CCN(C)C)C5)nc3c2C(C)C)cn2ncnc2c1C` [Example 913], for which the IC50 is 1.8 nM on human TLR8 (setting [4]), 8840 nM on human TLR9 (setting [5]) and 1 nM against human TLR7 (setting [6]).

For the compound `Cc1c(-c2[nH]c3ccc(C4CCC(NC5(C(=O)N(C)C)CCCC5)CC4)nc3c2C(C)C)cn2ncnc2c1C` (stereo not drawn) [Example 494], the IC50 on human TLR8 (setting [7]) amounted to 2.8 nM; at human TLR9 (setting [8]), 14100 nM; against human TLR7 (setting [9]), 5.2 nM.

`CC(C)c1c(-c2cn(CC#N)c3ncccc23)[nH]c2ccc(C3CCC(NC4CCOCC4)CC3)nc12` (stereo not drawn) [Example 268]: the IC50 on human TLR8 (setting [1]) came to 32 nM; at human TLR9 (setting [2]) it was 578 nM; against human TLR7 (setting [3]) it was 94 nM.

As for `Cc1c(-c2[nH]c3ccc(N4CCN(CCN(C)C)C(=O)C4)nc3c2C(C)C)cn2ncnc2c1C` [Example 1032], the IC50 at human TLR8 (setting [4]) came to 196 nM; at human TLR9 (setting [5]) it was 25400 nM; on human TLR7 (setting [6]), 1210 nM.

As to `CCN(CCS(C)(=O)=O)C1CCC(c2nc3c(C(C)C)c(-c4cn5ncnc5c(C)c4C)[nH]c3cc2F)CC1` (stereo not drawn) [Example 510], the values for the IC50 on human TLR8 (setting [7]), at human TLR9 (setting [8]) and at human TLR7 (setting [9]) were 28 nM, more than 50000 nM and 5.9 nM, respectively.

As for `CNC1CCC(c2ccc3[nH]c(-c4cn(CCS(C)(=O)=O)c5ncccc45)c(C(C)C)c3n2)CC1` (stereo not drawn) [Example 269], the results for the IC50 on human TLR8 (setting [1]), on human TLR9 (setting [2]) and against human TLR7 (setting [3]) were 88 nM, 670 nM and 223 nM, respectively.

`Cc1c(-c2[nH]c3ccc(C4CC(N)C4)nc3c2C(C)C)cn2ncnc2c1C` (stereo not drawn) [Example 617]: the IC50 at human TLR8 (setting [7]) was 1320 nM; on human TLR9 (setting [8]), 20500 nM; at human TLR7 (setting [9]), 2220 nM.

Take `COc1cc(-c2[nH]c3ccc(N4CCN(CCC(F)(F)F)CC4)nc3c2C(C)C)cn2ncnc12` [Example 116]: the IC50 is 5 nM at human TLR8 (setting [1]), 35600 nM at human TLR9 (setting [2]) and 9.7 nM at human TLR7 (setting [3]).

On to `CCN(CC(=O)N(C)C)C1CCC(c2nc3c(C(C)C)c(-c4cn5ncnc5c(C)c4C)[nH]c3cc2F)CC1` (stereo not drawn) [Example 508], for which the IC50 is 3.3 nM on human TLR8 (setting [7]), 6850 nM at human TLR9 (setting [8]) and 1.1 nM at human TLR7 (setting [9]).

For the compound `Cc1c(-c2[nH]c3ccc(C4CCC(N(C)CC(N)=O)CC4)nc3c2C(C)C)cn2ncnc2c1C` (stereo not drawn) [Example 406], the values for the IC50 on human TLR8 (setting [7]), on human TLR9 (setting [8]) and on human TLR7 (setting [9]) were 3 nM, 1470 nM and 1.4 nM, respectively.

Turning to `Cc1c(-c2[nH]c3ccc(CCC4CNC4)nc3c2C(C)C)cn2ncnc2c1C` [Example 692], the results for the IC50 at human TLR8 (setting [7]), on human TLR9 (setting [8]) and against human TLR7 (setting [9]) were 58 nM, 1530 nM and 43 nM, respectively.
